# Source: PMC12703733, “Probing Guanidino Pendant or Bridged Groups in Cyclic Antimicrobial Peptides Derived from Temporin L: A Strategy to Improve Efficacy against Gram-Negative Bacteria” (Journal of Medicinal Chemistry, 2025)
# Bridge positions count the residues as written; N and C are the ends. Square brackets hold non-standard residues; d marks the D form. Peptide text beside a SMILES is read from it.
# Key:
# P. aeruginosa ATCC 27853 [1] = type: cell-based
# Description: The ability of peptides to alter the bacterial membrane permeability of planktonic cells of S. aureus ATCC 25923 and P. aeruginosa ATCC 27853 was determined by the Sytox Green assay. Approximately 1 × 10^6 cells in 100 μL of PBS were combined with 1 μM Sytox Green in the dark for 5 min. The fluorescence intensity was monitored using a microplate reader (Infinite M200, Tecan), with excitation and emission at λ = 485 and 535 nm, respectively. Peptides were added (time = 0) at three different concentrations (i.e., 3.12, 6.25, and 12.5 μM). Increase in the fluorescence intensity is due to the binding of the dye to intracellular nucleic acids. Controls consisted of cells that were not exposed to the peptides. The values correspond to one representative experiment out of three independent experiments.
# B. megaterium BM11 = experiment: microbe, parasite or virus in culture; type: cell-based; details: BM11
# Method in brief: (§1)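 Mid-log bacteria were diluted in Mueller Hinton broth to 2 × 10^6 cell/mL, exposed to compound and incubated at 37 °C. MIC values came from three identical readings across four independent experiments.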
# P. aeruginosa ATCC 27853 [2] = experiment: microbe, parasite or virus in culture; type: cell-based; details: ATCC 27853
# Method in brief: as §1
# E. faecalis ATCC 29212 = experiment: microbe, parasite or virus in culture; type: cell-based; details: ATCC 29212
# Method in brief: as §1
# P. aeruginosa PAO1 = experiment: microbe, parasite or virus in culture; type: cell-based; details: PAO1
# Method in brief: as §1
# A. baumannii ATCC 19606 = experiment: microbe, parasite or virus in culture; type: cell-based; details: ATCC 19606
# Method in brief: as §1
# S. aureus ATCC 25923 = experiment: microbe, parasite or virus in culture; type: cell-based; details: ATCC 25923
# Method in brief: as §1
# E. coli D21 = experiment: microbe, parasite or virus in culture; type: cell-based; details: D21
# Method in brief: as §1
# [3] = test system: S. epidermidis ATCC 12228; experiment: microbe, parasite or virus in culture; type: cell-based; details: ATCC 12228
# Method in brief: as §1
# E. coli ATCC 25922 = experiment: microbe, parasite or virus in culture; type: cell-based; details: ATCC 25922
# Method in brief: as §1
# S. agalactiae ATCC 27591 = experiment: microbe, parasite or virus in culture; type: cell-based; details: ATCC 27591
# Method in brief: as §1
# in vitro = in vitro ADME; details: isolated enzyme chymotrypsin, pH 7.8
# Description: Peptide stability was evaluated by modifying previously described procedures. , The assays were performed in human serum and in the presence of proteolytic enzymes such as trypsin and chymotrypsin. For human serum stability, 2 mM peptide stock solutions were prepared in water and mixed with human serum (from male AB plasma, USA origin, sterile-filtered, Merck/Sigma-Aldrich, USA) to obtain a final concentration of 200 μM [human plasma/stock solution (9:1, v/v)]. The mixtures were incubated at 37 ± 1 °C, and 50 μL aliquots were taken at predetermined time intervals (0, 1, 2, 4, 8, and 24 h). Protease activity was quenched by adding 100 μL of acetonitrile (MeCN). The resulting cloudy suspensions were cooled to 4 °C for 30 min and centrifugated at 12,000 rpm for 10 min to remove the serum proteins. Then, the supernatants were analyzed by analytical HPLC (Shimadzu Nexera Liquid Chromatograph LC-30AD) which was equipped with a Phenomenex Kinetex reversed-phase column (C18, 5 μm, 100 Å, 150 mm × 4.6 mm) with a flow rate of 1 mL/min using a gradient of MeCN (0.1% TFA) in water (0.1% TFA), from 10 to 70% over 15 min, and UV detection at 220 nm. For enzyme stability, each peptide peptide (200 μM) was incubated with trypsin (0.5 μM) in PBS 1× (pH 7.2) or with chymotrypsin (0.005 μM) in Tris–HCl (100 mM, pH 7.8). Samples (50 μL) were collected at 0, 1, 2, 4, and 24 h, quenched with 0.5% TFA in water, and analyzed by HPLC under chromatographic conditions as described above. All experiments were conducted in triplicate. The percentage of intact peptides at each time point was determined by integrating the corresponding HPLC peak areas.
# [4] = test system: S. aureus ATCC 25923 biofilm; experiment: Activity against preformed biofilm (MTT); type: cell-based; details: concentrations below 25 μM
# Description: The antibiofilm activity was evaluated as elsewhere reported. Bacteria grew at 37 °C until they reached an optical density (OD) of 0.8 (λ = 590 nm). The culture was diluted to a cell density of 1 × 10^6 colony-forming units (CFUs)/mL and aliquots of 100 μL of this suspension were dispensed into the wells of a 96-multiwell plate. After biofilm formation (incubation time = 20 h at 37 °C), all the planktonic cells were removed, and the wells were washed twice with PBS (150 μL). After washing, the wells were filled with PBS supplemented with different 2-fold serial dilutions of the tested peptides (from 50 to 1.56 μM). After peptide treatment (incubation time = 2 h at 37 °C) the wells were washed with PBS twice and filled with 150 μL of MTT (0.5 mg/mL) to evaluate biofilm viability after 4 h incubation at 37 °C. The reaction was then stopped by adding SDS (final concentration equal to 5% v/v). A microplate reader (Infinite M200; Tecan, Salzburg, Austria) was used to measure the absorbance of each well at 570 nm and the percentage of biofilm viability was calculated relative to the untreated samples.
smiles,measurement,setting,value
"CC[C@H](C)[C@H](NC(=O)[C@H](CCCNC(=N)N)NC(=O)[C@H]1CCC(=O)NCCCC[C@H](NC(=O)[C@H](Cc2ccccc2)NC(=O)[C@H](Cc2c[nH]c3ccccc23)NC(=O)[C@@H]2CCCN2C(=O)[C@@H](NC(=O)[C@@H](N)Cc2ccccc2)C(C)C)C(=O)N[C@@H](CCCCN)C(=O)N[C@@H](Cc2ccccc2)C(=O)N[C@H](CC(C)C)C(=O)N1)C(=O)N[C@@H](CC(C)C)C(N)=O [Peptide 2, FVPWF[KKFle]RIL] (H-FVPWFKKF[dL][dE]RIL-NH2; lactam 6-10)","membrane permeabilization, Sytox Green fluorescence (in words)",P. aeruginosa ATCC 27853 [1],lower intensity
same,MIC,B. megaterium BM11,0.78 µM
same,MIC,P. aeruginosa ATCC 27853 [2],50 µM
same,MIC,E. faecalis ATCC 29212,25 µM
same,MIC,P. aeruginosa PAO1,50 µM
same,MIC,A. baumannii ATCC 19606,6.25 µM
same,MIC,S. aureus ATCC 25923,12.5 µM
same,MIC,E. coli D21,12.5 µM
same,MIC,[3],3.12 µM
same,MIC,E. coli ATCC 25922,6.25 µM
same,MIC,S. agalactiae ATCC 27591,3.12 µM
same,"remaining at 4 h, 200 μM",in vitro,~20%
same,antibiofilm activity (in words),[4],weaker or no activity
